Experimental data taken from US5430036A, “6,11-substituted-6,11-dihydrobenzo[b]quinolizinium salts and compositions and method of use thereof” (Sterling Winthrop Inc., priority 1994, dated 1995).

What was measured:
PCP recognition sites [1] = assay: [3H]TCP radioreceptor assay (internal screen), binding to PCP recognition sites in rat whole brain membranes; set-up: species or system rat (male Sprague-Dawley); details: 25 min, room temperature; for Ki: approx. 1 nM [3H]TCP, mean of at least two separate determinations
Procedure: [^3 H]TCP binding to PCP recognition sites was performed as described by Vignon et al. Brain Research 1983, 280, 194-197. Male Sprague-Dawley rats were sacrificed by decapitation, and whole brains were homogenized in 10 volumes (wt/vol) of cold Tris-HCl buffer (50 mM, pH 7.7) using a Brinkmann Polytron (setting 6, 30 sec). The homogenate was centrifuged at 40,000×g for 10 min at 4° C. The supernatant was decanted, and the homogenization and centrifugation steps were repeated twice as described above. Following this, the pellet was resuspended in Tris-HCl (5 mM, pH 7.7) at a tissue concentration of 0.5-0.75 g/ml, and one ml aliquots were frozen at -70° C. until use. The binding characteristics for PCP recognition sites were not altered by the freezing of membrane suspensions.
On the day of the assay, membrane aliquots were thawed, resuspended in fresh 5 mM Tris-HCl buffer at a tissue concentration of 1 mg/ml, and stored on ice until use. Each assay tube contained 100 μl of [^3 H]TCP at a final concentration of approximately 1 nM, 100 μl of various concentrations of the compounds of interest, 500 μl of the tissue suspension and 300 μl of buffer to a final assay volume of 1 ml and a final protein concentration of 0.5 mg/tube. Non-specific binding was defined by addition of a final concentration of 100 μM PCP to blank tubes. All tubes were incubated at room temperature for 25 min before termination of the reaction by rapid filtration over Whatman GF/B glass fiber filters that had been presoaked in a solution of 0.5% polyethylenimine for at least 1 hr prior to use. Filters were washed with three 4 ml volumes of cold Tris buffer. Following addition of scintillation cocktail, the amount of bound radioactivity was determined by liquid scintillation spectrometry using a Beckman LS 5000TA liquid scintillation counter with an efficiency for tritium of approximately 55%. Inhibition constants (Ki values) were calculated using the EBDA/LIGAND program (McPherson, J. Pharmacol. Meth. 1985, 14, 213-228), purchased from Elsevier/Biosoft, Inc. Results are reported as Ki values which are expressed as the mean of at least two separate determinations; or as a percent (%) inhibition of binding at 10 μM.

PCP recognition sites [2] = assay: [3H]TCP radioreceptor assay (external screen), binding to PCP recognition sites in whole rat forebrain membranes; details: 25° C., 60 min
Procedure: A procedure similar to that described above, for the [^3 H]TCP radioreceptor assay (internal screen) was utilized except that the whole rat forebrain membranes were incubated at 25° C. for 60 minutes rather than at room temperature for 25 minutes, before termination of the reaction. The results are reported as a percent (%) inhibition of binding at 10 μM.

[3] = test system: NMDA-induced neurotoxicity in cultured cortical neurons; assay: Antagonism of NMDA-induced neurotoxicity in cultured cortical neurons (LDH release); format: cell-based, mouse (Swiss-Webster); details: Mus musculus, Cortical neurone; 500 μM NMDA, 30 min exposure; LDH activity 24 h after removal of NMDA; day 13 cultured cortical neurons
Procedure: Pregnant, Swiss-Webster mice were obtained from Taconic Farms (Germantown, N.Y.) and sacrificed 16 days post conception. Fetuses were removed and placed in a sterile dish containing Hank's balanced salt solution (HBSS), pH 7.4. Brain cortices were dissected, meninges were removed, the tissue was minced and placed into a solution of HBSS containing 0.25% (w/v) trypsin at 37° C. for 15 minutes. Tissue was then triturated with a sterile pasteur pipet, diluted with minimal essential media (Gibco 330-1430), pH 7.4, supplemented with 10% horse serum, 10% fetal calf serum, 2 mM 1-glutamine, 21 mM d-glucose, 2.2 g/L sodium bicarbonate, 1000 U/ml penicillin, and 1,000 μg/ml streptomycin. Cells were plated onto Falcon primaria 96 well plates at a final density of 50,000 cells/well and incubated at 37° C. in the presence of 5% (v/v) carbon dioxide. After 5 days, plating media was replaced with maintenance media containing minimal essential media (Gibco 330-1430), pH 7.4, supplemented with 10% horse serum, 10% 1-glutamine, 21 mM d-glucose, 2.2 g/l sodium bicarbonate,1,000 U/ml penicillin, 1,000 μg/ml streptomycin, and 10 μM cytosine arabinoside. On days 7 and 10, media was replaced with maintenance media as above lacking the cytosine arabinoside. Experiments were conducted on day 13. […]

Compound	[3H]TCP (external screen) Percent Inhibition (%) @10 μM (PCP recognition sites [2])	Ki (PCP recognition sites [1])	further results
O=[N+]([O-])c1cccc2c1C1c3ccccc3C2c2cccc[n+]21 (centres unmarked) [15(b), 7-Nitro-6,11-benzeno-6,11-dihydrobenzo[b]quinolizinium perchlorate]	9%	–	[3H]TCP (internal screen) Percent Inhibition @10 μM (PCP recognition sites [1]): 37%
c1ccc2c(c1)C1c3cccc[n+]3C2C2CCCC12 (centres unmarked) [Example 13(a), 6,11[1',2']cyclopentyl-6,11-dihydrobenzo[b]quinolizinium perchlorate.1/2 hydrate]	–	–	Ki (PCP recognition sites [1]; hydrate): 1560 nM
c1ccc2c(c1)C1c3cccc[n+]3C2C2CCCC12 (centres unmarked) [Example 13(b), 6,11[1',2']cyclopentyl-6,11-dihydrobenzo[b]quinolizinium perchlorate.1/2 hydrate]	–	–	Ki (PCP recognition sites [1]; hydrate): 366 nM; IC50 [3]: 8400 nM
Cc1cccc2c1C1c3ccccc3C2c2cccc[n+]21 (centres unmarked) [15(d), 7-Methyl-6,11-benzeno-6,11-dihydrobenzo[b]quinolizinium perchlorate]	11%	–	[3H]TCP (internal screen) Percent Inhibition @10 μM (PCP recognition sites [1]): 52%
CC12c3ccccc3C(c3cccc[n+]31)C1C=CCC12 (centres unmarked) [12(c), 6-methyl-6,11[3',4']cyclopentenyl-6,11-dihydrobenzo[b]quinolizinium perchlorate, .1/2 H2 O]	–	93.4 nM	–
c1ccc2c(c1)C1c3cccc[n+]3C2C2CCOC12 (centres unmarked) [Example 8, 6,11[2',3']tetrahydrofuranyl-6,11-dihydrobenzo[b]-quinolizinium bromide]	–	8490 nM	–
CC(C)(C)c1ccc(O)c2c1C1c3ccccc3C2[n+]2ccccc21 (centres unmarked) [15(c), 7-Hydroxy-10-tert-butyl-6,11-benzeno-6,11-dihydrobenzo[b]quinolizinium perchlorate]	24%	–	[3H]TCP (internal screen) Percent Inhibition @10 μM (PCP recognition sites [1]): 10%
Fc1ccc2c(c1)C1c3cccc[n+]3C2C2CC=CC12 (centres unmarked) [5(c), 9-fluoro-6,11[3',4']cyclopentenyl-6,11-dihydrobenzo-[b]quinolizinium perchlorate]	–	806 nM	–
Brc1ccc2c(c1)C1c3cccc[n+]3C2C2CC=CC12 (centres unmarked) [4(c), 9-bromo-6,11[3',4']cyclopentenyl-6,11-dihydrobenzo[b]quinolizinium bromide]	–	1630 nM	–
CC(C)=C1C=CC2C3c4ccccc4C(C12)[n+]1ccccc13 (centres unmarked) [14(b), 6,11-[5'-isopropylidene-[3',4']cyclopentenyl]-6,11-dihydrobenzo[b]quinolizinium perchlorate]	–	367 nM	–
C1=CC2C3c4ccccc4C(C2C1)[n+]1ccccc13 (centres unmarked) [15(a), 6,11-[3',4']cyclopentenyl-6,11-dihydrobenzo[b]quinolizinium bromide]	92%	464 nM	–
C1=CC2C3c4ccccc4C(C2CC1)[n+]1ccccc13 (centres unmarked) [Example 1, 6,11[3',4']-cyclohexenyl-6,11-dihydrobenzo[b]quinolizinium bromide]	–	245 nM	–
